# Experimental data from patent publication US9480679B2, “Methods for treating malaria, tuberculosis and MAC diseases” (priority 2009, dated 2016).
# Where “and” joins values, the source holds several entries; their conditions need not be identical. Equal entries are not always repeated. Where two headings read alike, the source gives them in different places.
# How the values were obtained:
# P. falciparum NF54 [1] = test: In vitro P. falciparum 120 hour assay (96+24); assay type: cell-based; conditions: Plasmodium falciparum
# Description: EXAMPLE. In vitro and in vivo activity against different species of Plasmodium parasites. CEM-101 was tested against intra-erythrocytic forms of P. falciparum derived from asynchronous cultures of the strain […]. Parasite growth over 120 h was measured by the incorporation of radiolabelled [^3H]hypoxanthine (in hypoxanthine free culture medium) added after 96 h of drug incubation and 24 h prior to the termination of the test. CEM-101 was followed for 120 h. CEM-101 has delayed activity when compared to other agents.
# In vitro P. falciparum data for CEM-101 in the 120 h Assay (96+24)
# P. berghei = test: Murine P. berghei model, oral 1x or 4x 100 mg/kg; assay type: in vivo; conditions: mice; for Parasitized RBC over 100 (made by FACS): individual animals
# Description: EXAMPLE. CEM-101 activity in infected mice.
# EXAMPLE. CEM-101 was tested in the murine P. berghei model as described by Vennerstrom et al. Nature 430(7002):900-904 (2004), the disclosure of which is incorporated herein by reference.
# M. avium = conditions: Bermudez 2001; cited from earlier work
# [2] = test system: replicating M. tuberculosis; conditions: reported values; cited from earlier work
# M. tuberculosis [3] = conditions: 100 mg/kg once daily for 3 weeks (Zhu 2008); cited from earlier work
# P. falciparum NF54 [4] = test: In vitro P. falciparum 72 hour assay (48+24); assay type: cell-based; conditions: Plasmodium falciparum
# Description: EXAMPLE. In vitro and in vivo activity against different species of Plasmodium parasites. CEM-101 was tested against intra-erythrocytic forms of P. falciparum derived from asynchronous cultures of the strain […]. […] CEM-101 was followed for 120 h. CEM-101 has delayed activity when compared to other agents.
# In vitro P. falciparum data for CEM-101 in the 72 h Assay (48+24)
# M. avium complex = test: Broth dilution MIC versus M. avium complex isolates; assay type: cell-based, Mycobacterium avium
# M. avium LPR ATCC 49601 = test: Murine model of M. avium infection, CFU in spleens and lungs; assay type: in vivo; conditions: mice, 200 mg/kg orally 5 days/week for 4 weeks; P<0.05
# [5] = test system: replicating M. tuberculosis; test: Microplate Alamar Blue Assay (MABA), replicating culture; assay type: cell-based; conditions: two experiments
# [6] = test system: replicating M. tuberculosis; test: Aero RLU (Relative Light Units under aerobic conditions), replicating culture; assay type: cell-based; conditions: two experiments
# M. tuberculosis [7] = conditions: reported in vitro activity; cited from earlier work
# [8] = NF54, 120 h assay (96+24), read-out: IC50 NF54
# [9] = NF54, 120 hour assay (96+24), read-out: IC50 NF54 Test 1
# [10] = NF54, 120 hour assay (96+24), read-out: IC50 NF54 Test 2
# [11] = NF54, 120 hour assay (96+24), read-out: IC50 NF54 Test 3
structure (smiles),measurement,setting,value
CCC[C@@H]1C[C@@H](C(=O)N[C@@H]([C@H]2O[C@H](SC)[C@H](O)[C@@H](O)[C@H]2O)[C@H](C)Cl)N(C)C1 [Clindamycin],IC50,P. falciparum NF54 [1]; [8],5.3 ng/mL
same,IC50,P. falciparum NF54 [1]; [9],< 7.8 ng/mL
same,IC50,P. falciparum NF54 [1]; [10],5.3 ng/mL
same,IC50,P. falciparum NF54 [1]; [11],5.3 ng/mL
same,Cure (%),"P. berghei; 4 × 100 mg/kg oral, DMSO",0%
same,Cure (%),"P. berghei; 4 × 100 mg/kg oral, HPMC",0%
CC[C@H]1OC(=O)[C@H](C)C(=O)[C@H](C)[C@@H](O[C@@H]2O[C@H](C)C[C@H](N(C)C)[C@H]2O)[C@](C)(OC/C=C/c2cnc3ccccc3c2)C[C@@H](C)C(=O)[C@H](C)[C@H]2NC(=O)O[C@@]21C [Cethromycin],bactericidal activity against M. avium,M. avium,lack of significant bactericidal activity
same,MABA MIC,[2],4000 ng/mL
same,reduction of CFU in the lungs of mice,M. tuberculosis [3],failed to significantly reduce CFU
CC[C@H]1OC(=O)[C@H](C)C(=O)[C@H](C)[C@@H](O[C@@H]2O[C@H](C)C[C@H](N(C)C)[C@H]2O)[C@](C)(OC)C[C@@H](C)C(=O)[C@H](C)[C@H]2N(CCCCn3cnc(-c4cccnc4)c3)C(=O)O[C@]12C [telithromycin],bactericidal activity against M. avium,M. avium,lack of significant bactericidal activity
same,MABA MIC,[2],128000 ng/mL
"CC[C@H]1OC(=O)[C@H](C)[C@@H](O[C@H]2C[C@@](C)(OC)[C@@H](O)[C@H](C)O2)[C@H](C)[C@@H](O[C@@H]2O[C@H](C)C[C@H](N(C)C)[C@H]2O)[C@](C)(O)C[C@@H](C)CN(C)[C@H](C)[C@@H](O)[C@]1(C)O [Azithromycin, reference compound]",Activity (%),"P. berghei; 1 × 100 mg/kg oral, DMSO",70.39%
same,Survival,"P. berghei; 1 × 100 mg/kg oral, DMSO",14.0 days
same,Activity (%),"P. berghei; 1 × 100 mg/kg oral, HPMC",65.19%
same,Survival,"P. berghei; 1 × 100 mg/kg oral, HPMC",14.0 days
same,Activity (%),"P. berghei; 4 × 100 mg/kg oral, DMSO",99.11%
same,Cure (%),"P. berghei; 4 × 100 mg/kg oral, DMSO",0%
same,Survival,"P. berghei; 4 × 100 mg/kg oral, DMSO, survivors sacrificed on Day 31",30.0 days
same,Activity (%),"P. berghei; 4 × 100 mg/kg oral, HPMC",99.13%
same,Cure (%),"P. berghei; 4 × 100 mg/kg oral, HPMC",0%
same,Survival,"P. berghei; 4 × 100 mg/kg oral, HPMC, survivors sacrificed on Day 31",24.0 days
same,blood from treated animals parasite free or not,P. berghei; 4× 100 mg/kg p.o.,is not
same,Visual Observation (parasites in blood),"P. berghei; 4× 100 mg/kg p.o., DMSO",pos
same,Parasitized RBC over 100 (made by FACS),"P. berghei; 4× 100 mg/kg p.o., DMSO, 100 mg/kg",34.32 and 2.20 and 36.31
same,Visual Observation (parasites in blood),"P. berghei; 4× 100 mg/kg p.o., HPMC",pos
same,Parasitized RBC over 100 (made by FACS),"P. berghei; 4× 100 mg/kg p.o., HPMC",74.04
C[C@H]1[C@H](OC(=O)CCC(=O)O)O[C@@H]2O[C@@]3(C)CC[C@H]4[C@H](C)CC[C@@H]1[C@@]24OO3 [Artesunate],IC50,"P. falciparum NF54 [4]; NF54, 72 h, read-out: IC50 NF54 TEST 1",3 ng/mL
same,IC50,"P. falciparum NF54 [4]; NF54, 72 h, read-out: IC50 NF54 TEST 2",3.2 ng/mL
same,IC50,"P. falciparum NF54 [4]; NF54, 72 h, read-out: IC50 NF54 TEST 3",3 ng/mL
same,IC50,"P. falciparum NF54 [4]; NF54, 72 h, read-out: IC50 NF54 TEST 4",2.8 ng/mL
same,IC50,"P. falciparum NF54 [4]; NF54, 72 h, read-out: IC50 NF54 Test 1",3 ng/mL
same,IC50,"P. falciparum NF54 [4]; NF54, 72 h, read-out: IC50 NF54 Test 2",3.2 ng/mL
same,IC50,"P. falciparum NF54 [4]; NF54, 72 h, read-out: IC50 NF54 Test 3",3 ng/mL
same,IC50,"P. falciparum NF54 [4]; NF54, 72 h, read-out: IC50 NF54 Test 4",2.8 ng/mL
same,IC50,"P. falciparum NF54 [1]; NF54, 120 h, read-out: IC50 NF54",3.3 ng/mL
same,IC50,"P. falciparum NF54 [1]; NF54, 120 h, read-out: IC50 NF54 Test 1",4.2 ng/mL
same,IC50,"P. falciparum NF54 [1]; NF54, 120 h, read-out: IC50 NF54 Test 2",3.9 ng/mL
same,IC50,"P. falciparum NF54 [1]; NF54, 120 h, read-out: IC50 NF54 Test 3",3.3 ng/mL
"CC[C@H]1OC(=O)[C@H](C)[C@@H](O[C@H]2C[C@@](C)(OC)[C@@H](O)[C@H](C)O2)[C@H](C)[C@@H](O[C@@H]2O[C@H](C)C[C@H](N(C)C)[C@H]2O)[C@](C)(OC)C[C@@H](C)C(=O)[C@H](C)[C@@H](O)[C@]1(C)O [Clarithromycin, reference compound]",MIC,M. avium complex; Mycobacterium avium,128000 ng/mL
same,MIC,"M. avium complex; Mycobacterium avium, isolate MAC 101, clarithromycin susceptible, read-out: MIC",125 ng/mL
same,MIC,"M. avium complex; Mycobacterium avium, isolate MAC 103, clarithromycin resistant, read-out: MIC",64000 ng/mL
same,MIC,"M. avium complex; Mycobacterium avium, isolate MAC 108, clarithromycin resistant, read-out: MIC",64000 ng/mL
same,MIC,"M. avium complex; Mycobacterium avium, isolate MAC 110, clarithromycin resistant, read-out: MIC",64000 ng/mL
same,MIC,"M. avium complex; Mycobacterium avium, isolate MAC 216, clarithromycin resistant, read-out: MIC",32000 ng/mL
same,MIC,"M. avium complex; Mycobacterium avium, isolate MAC 309, clarithromycin resistant, read-out: MIC",64000 ng/mL
same,MIC,"M. avium complex; Mycobacterium avium, isolate MAC 320, clarithromycin resistant, read-out: MIC",64000 ng/mL
same,MIC,"M. avium complex; Mycobacterium avium, isolate MAC 623, clarithromycin resistant, read-out: MIC",64000 ng/mL
same,MIC,"M. avium complex; Mycobacterium avium, isolate MAC 625, clarithromycin resistant, read-out: MIC",64000 ng/mL
same,MIC,"M. avium complex; Mycobacterium avium, isolate MAC 643, clarithromycin resistant, read-out: MIC",64000 ng/mL
same,MIC,"M. avium complex; Mycobacterium avium, isolate MAC 1408, clarithromycin susceptible, read-out: MIC",250 ng/mL
same,MIC,"M. avium complex; Mycobacterium avium, isolate MAC 3404.4, clarithromycin susceptible, read-out: MIC",125 ng/mL
same,MIC,"M. avium complex; Mycobacterium avium, isolate MAC 9141, clarithromycin susceptible, read-out: MIC",250 ng/mL
same,MIC,"M. avium complex; Mycobacterium avium, isolate MAC FAR, clarithromycin susceptible, read-out: MIC",125 ng/mL
same,MIC,"M. avium complex; Mycobacterium avium, isolate MAC GRL, clarithromycin susceptible, read-out: MIC",2000 ng/mL
same,MIC,"M. avium complex; Mycobacterium avium, isolate MAC KAL, clarithromycin susceptible, read-out: MIC",8000 ng/mL
same,MIC,"M. avium complex; Mycobacterium avium, isolate MAC KZL, clarithromycin susceptible, read-out: MIC",1000 ng/mL
same,MIC,"M. avium complex; Mycobacterium avium, isolate MAC Pry, clarithromycin resistant, read-out: MIC",64000 ng/mL
same,MIC,"M. avium complex; Mycobacterium avium, isolate MAC SMT, clarithromycin susceptible, read-out: MIC",250 ng/mL
same,MIC,"M. avium complex; Mycobacterium avium, isolate MAC TEL, clarithromycin susceptible, read-out: MIC",2000 ng/mL
same,MIC,"M. avium complex; Mycobacterium avium, isolate MAC TRY, clarithromycin susceptible, read-out: MIC",500 ng/mL
same,MIC,"M. avium complex; isolate MAC 224, clarithromycin resistant",128000 ng/mL
same,reduction in growth of MAC LPR in the spleens and lungs compared to the late controls,M. avium LPR ATCC 49601,significant
same,MIC,[5]; Mycobacterium tuberculosis,14.5 µM
same,MIC,[5],13.34 µM
same,Aero RLU,[6],22.46 µM and 18.82 µM
same,MABA MIC,[2],8000 ng/mL
same,MIC,M. tuberculosis [7],8000 ng/mL
CCN(CC)CCCC(C)Nc1ccnc2cc(Cl)ccc12 (stereo not shown) [Chloroquine],IC50,"P. falciparum NF54 [4]; NF54, 72 h assay (48+24), read-out: IC50 NF54 TEST 1",4.4 ng/mL
same,IC50,"P. falciparum NF54 [4]; NF54, 72 h assay (48+24), read-out: IC50 NF54 TEST 2",5.4 ng/mL
same,IC50,"P. falciparum NF54 [4]; NF54, 72 h assay (48+24), read-out: IC50 NF54 TEST 3",4.4 ng/mL
same,IC50,"P. falciparum NF54 [4]; NF54, 72 h assay (48+24), read-out: IC50 NF54 TEST 4",4.8 ng/mL
same,IC50,"P. falciparum NF54 [4]; NF54, 72 hour assay (48+24), read-out: IC50 NF54 Test 1",4.4 ng/mL
same,IC50,"P. falciparum NF54 [4]; NF54, 72 hour assay (48+24), read-out: IC50 NF54 Test 2",5.4 ng/mL
same,IC50,"P. falciparum NF54 [4]; NF54, 72 hour assay (48+24), read-out: IC50 NF54 Test 3",4.4 ng/mL
same,IC50,"P. falciparum NF54 [4]; NF54, 72 hour assay (48+24), read-out: IC50 NF54 Test 4",4.8 ng/mL
same,IC50,P. falciparum NF54 [1]; [8],4.7 ng/mL
same,IC50,P. falciparum NF54 [1]; [9],4.6 ng/mL
same,IC50,P. falciparum NF54 [1]; [10],4.6 ng/mL
same,IC50,P. falciparum NF54 [1]; [11],4.7 ng/mL
